Assay results reported in patent publication US10597388B2, “Pyridazinone herbicides” (FMC CORPORATION, priority 2014, dated 2020).

How the values were obtained:
Assay type in all cases: in vivo
[1] = tested on: barnyardgrass (Echinochloa crus-galli); assay: Test C greenhouse herbicide test, pre- and postemergence
Method in brief: (§1)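 Each species was treated both before emergence, in a loam–sand soil mix, and after emergence, as 1- to 4-leaf seedlings in peat-based potting medium. Plants stayed in the greenhouse 13 to 15 d, then were scored from 0 (no effect) to 100 (complete control) relative to controls.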

[2] = tested on: blackgrass (Alopecurus myosuroides); assay: as above
Method in brief: as §1

corn (Zea mays) = assay: as above
Method in brief: as §1

[3] = tested on: crabgrass, large (large crabgrass, Digitaria sanguinalis); assay: as above
Method in brief: as §1

[4] = tested on: foxtail, giant (giant foxtail, Setaria faberii); assay: as above
Method in brief: as §1

[5] = tested on: johnsongrass (Sorghum halepense); assay: as above
Method in brief: as §1

[6] = tested on: lambsquarters (Chenopodium album); assay: as above
Method in brief: as §1

[7] = tested on: morningglory (Ipomoea coccinea); assay: as above
Method in brief: as §1

[8] = tested on: pigweed (Amaranthus retroflexus); assay: as above
Method in brief: as §1

[9] = tested on: ragweed (common ragweed, Ambrosia elatior); assay: as above
Method in brief: as §1

[10] = tested on: ryegrass, Italian (Italian ryegrass, Lolium multiflorum); assay: as above
Method in brief: as §1

soybean (Glycine max) = assay: as above
Method in brief: as §1

[11] = tested on: waterhemp (common waterhemp, Amaranthus rudis); assay: as above
Method in brief: as §1

[12] = tested on: wheat (winter wheat, Triticum aestivum); assay: as above
Method in brief: as §1

kochia (Kochia scoparia) = assay: Test C greenhouse herbicide test, postemergence
Method in brief: (§2)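 Test chemicals were applied postemergence to greenhouse plants at the 1- to 4-leaf stage (2–18 cm tall) growing in peat/vermiculite medium. After 13–15 d, injury was rated visually against untreated controls on a 0–100 scale (0 = no effect, 100 = complete control).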

[13] = tested on: oat, wild (wild oat, Avena fatua); assay: Test C greenhouse herbicide test, postemergence
Method in brief: as §2

[14] = Postemergence, 31 g ai/ha, 0 to 100 scale (0 no effect, 100 complete control)
[15] = Postemergence, 125 g ai/ha, scale 0 to 100, 0 is no effect, 100 is complete control
[16] = Postemergence, 250 g ai/ha, scale 0 to 100, 0 no effect, 100 complete control, 13 to 15 d
[17] = postemergence, 62 g ai/ha, scale 0 to 100, 0 no effect, 100 complete control

For `Cc1cc(C)c2ccccc2c1-c1c(O)cnn(C)c1=O` [Compound 51], the “Barnyardgrass plant response rating” value [1, 14] was 5, the “Plant response rating, Barnyardgrass” value [1, 15] was 10 and the “Plant response rating, Barnyardgrass” value [1, 16] was 20. For the same compound, the “Barnyardgrass plant response rating” value [1, 17] was 5, the “Blackgrass plant response rating” value [2, 14] was 0 and the “Plant response rating, Blackgrass” value [2, 15] was 0. The “Plant response rating, Blackgrass” value [2, 16] was 10, the “Blackgrass plant response rating” value [2, 17] was 0 and the “Corn plant response rating” value (corn (Zea mays); [14]) was 0. For the same compound, the “Plant response rating, Corn” value (corn (Zea mays); [15]) was 0, the “Plant response rating, Corn” value (corn (Zea mays); [16]) was 0 and the “Corn plant response rating” value (corn (Zea mays); [17]) was 0. For the same compound, the “Crabgrass, Large plant response rating” value [3, 14] was 0, the “Plant response rating, Crabgrass, Large” value [3, 15] was 10 and the “Plant response rating, Crabgrass, Large” value [3, 16] was 10. The “Crabgrass, Large plant response rating” value [3, 17] was 5, the “Foxtail, Giant plant response rating” value [4, 14] was 5 and the “Plant response rating, Foxtail, Giant” value [4, 15] was 15. For the same compound, the “Plant response rating, Foxtail, Giant” value [4, 16] was 35, the “Foxtail, Giant plant response rating” value [4, 17] was 5 and the “Johnsongrass plant response rating” value [5, 14] was 0. The “Plant response rating, Johnsongrass” value [5, 15] was 0, the “Plant response rating, Johnsongrass” value [5, 16] was 0 and the “Johnsongrass plant response rating” value [5, 17] was 0. For the same compound, the “Lambsquarters plant response rating” value [6, 14] was 5, the “Plant response rating, Lambsquarters” value [6, 15] was 65 and the “Lambsquarters plant response rating” value [6, 17] was 50. The “Morningglory plant response rating” value [7, 14] was 5, the “Plant response rating, Morningglory” value [7, 15] was 75 and the “Plant response rating, Morningglory” value [7, 16] was 75. The “Morningglory plant response rating” value [7, 17] was 55, the “Pigweed plant response rating” value [8, 14] was 60 and the “Plant response rating, Pigweed” value [8, 15] was 70. The “Plant response rating, Pigweed” value [8, 16] was 85, the “Pigweed plant response rating” value [8, 17] was 65 and the “Ragweed plant response rating” value [9, 14] was 10. For the same compound, the “Plant response rating, Ragweed” value [9, 15] was 5, the “Plant response rating, Ragweed” value [9, 16] was 25 and the “Ragweed plant response rating” value [9, 17] was 5. The “Ryegrass, Italian plant response rating” value [10, 14] was 35, the “Plant response rating, Ryegrass, Italian” value [10, 15] was 60 and the “Plant response rating, Ryegrass, Italian” value [10, 16] was 70. For the same compound, the “Ryegrass, Italian plant response rating” value [10, 17] was 50, the “Soybean plant response rating” value (soybean (Glycine max); [14]) was 0 and the “Plant response rating, Soybean” value (soybean (Glycine max); [15]) was 0. For the same compound, the “Plant response rating, Soybean” value (soybean (Glycine max); [16]) was 0, the “Soybean plant response rating” value (soybean (Glycine max); [17]) was 0 and the “Waterhemp plant response rating” value [11, 14] was 30. For the same compound, the “Plant response rating, Waterhemp” value [11, 15] was 80, the “Waterhemp plant response rating” value [11, 17] was 50 and the “Wheat plant response rating” value [12, 14] was 0. The “Plant response rating, Wheat” value [12, 15] was 0, the “Plant response rating, Wheat” value [12, 16] was 0 and the “Wheat plant response rating” value [12, 17] was 0. The “Kochia plant response rating” value (kochia (Kochia scoparia); [14]) was 0, the “Plant response rating, Kochia” value (kochia (Kochia scoparia); [15]) was 50 and the “Plant response rating, Kochia” value (kochia (Kochia scoparia); [16]) was 75. For the same compound, the “Kochia plant response rating” value (kochia (Kochia scoparia); [17]) was 15, the “Oat, Wild plant response rating” value [13, 14] was 0 and the “Plant response rating, Oat, Wild” value [13, 15] was 5. For the same compound, the “Plant response rating, Oat, Wild” value [13, 16] was 10 and the “Oat, Wild plant response rating” value [13, 17] was 5.
In the case of `Cc1ccc(-c2c(O)c(Br)nn(C)c2=O)c2ccccc12` [Compound 52], the “Barnyardgrass plant response rating” value [1, 14] is reported as 5, the “Plant response rating, Barnyardgrass” value [1, 15] is reported as 5 and the “Plant response rating, Barnyardgrass” value [1, 16] is reported as 10. The “Barnyardgrass plant response rating” value [1, 17] was 5, the “Blackgrass plant response rating” value [2, 14] was 0 and the “Plant response rating, Blackgrass” value [2, 15] was 30. For the same compound, the “Plant response rating, Blackgrass” value [2, 16] was 30, the “Blackgrass plant response rating” value [2, 17] was 10 and the “Corn plant response rating” value (corn (Zea mays); [14]) was 0. The “Plant response rating, Corn” value (corn (Zea mays); [15]) was 0, the “Plant response rating, Corn” value (corn (Zea mays); [16]) was 0 and the “Corn plant response rating” value (corn (Zea mays); [17]) was 0. For the same compound, the “Crabgrass, Large plant response rating” value [3, 14] was 0, the “Plant response rating, Crabgrass, Large” value [3, 15] was 5 and the “Plant response rating, Crabgrass, Large” value [3, 16] was 10. For the same compound, the “Crabgrass, Large plant response rating” value [3, 17] was 0, the “Foxtail, Giant plant response rating” value [4, 14] was 0 and the “Plant response rating, Foxtail, Giant” value [4, 15] was 10. The “Plant response rating, Foxtail, Giant” value [4, 16] was 35, the “Foxtail, Giant plant response rating” value [4, 17] was 5 and the “Johnsongrass plant response rating” value [5, 14] was 5. For the same compound, the “Plant response rating, Johnsongrass” value [5, 15] was 10, the “Plant response rating, Johnsongrass” value [5, 16] was 15 and the “Johnsongrass plant response rating” value [5, 17] was 10. The “Lambsquarters plant response rating” value [6, 14] was 55, the “Plant response rating, Lambsquarters” value [6, 15] was 75 and the “Plant response rating, Lambsquarters” value [6, 16] was 98. For the same compound, the “Lambsquarters plant response rating” value [6, 17] was 60, the “Morningglory plant response rating” value [7, 14] was 98 and the “Plant response rating, Morningglory” value [7, 15] was 100. For the same compound, the “Plant response rating, Morningglory” value [7, 16] was 100, the “Morningglory plant response rating” value [7, 17] was 100 and the “Pigweed plant response rating” value [8, 14] was 30. For the same compound, the “Plant response rating, Pigweed” value [8, 15] was 10, the “Plant response rating, Pigweed” value [8, 16] was 55 and the “Pigweed plant response rating” value [8, 17] was 5. For the same compound, the “Ragweed plant response rating” value [9, 14] was 55, the “Plant response rating, Ragweed” value [9, 15] was 80 and the “Plant response rating, Ragweed” value [9, 16] was 98. The “Ragweed plant response rating” value [9, 17] was 65, the “Ryegrass, Italian plant response rating” value [10, 14] was 10 and the “Plant response rating, Ryegrass, Italian” value [10, 15] was 45. The “Plant response rating, Ryegrass, Italian” value [10, 16] was 60, the “Ryegrass, Italian plant response rating” value [10, 17] was 40 and the “Soybean plant response rating” value (soybean (Glycine max); [14]) was 0. For the same compound, the “Plant response rating, Soybean” value (soybean (Glycine max); [15]) was 0, the “Plant response rating, Soybean” value (soybean (Glycine max); [16]) was 0 and the “Soybean plant response rating” value (soybean (Glycine max); [17]) was 0. The “Waterhemp plant response rating” value [11, 14] was 10, the “Plant response rating, Waterhemp” value [11, 15] was 10 and the “Plant response rating, Waterhemp” value [11, 16] was 55. For the same compound, the “Waterhemp plant response rating” value [11, 17] was 10, the “Wheat plant response rating” value [12, 14] was 0 and the “Plant response rating, Wheat” value [12, 15] was 0. For the same compound, the “Plant response rating, Wheat” value [12, 16] was 0, the “Wheat plant response rating” value [12, 17] was 0 and the “Kochia plant response rating” value (kochia (Kochia scoparia); [14]) was 0. The “Plant response rating, Kochia” value (kochia (Kochia scoparia); [15]) was 5, the “Plant response rating, Kochia” value (kochia (Kochia scoparia); [16]) was 70 and the “Kochia plant response rating” value (kochia (Kochia scoparia); [17]) was 0. For the same compound, the “Oat, Wild plant response rating” value [13, 14] was 0, the “Plant response rating, Oat, Wild” value [13, 15] was 0 and the “Plant response rating, Oat, Wild” value [13, 16] was 0. For the same compound, the “Oat, Wild plant response rating” value [13, 17] was 0.
